Results taken from US6335339B1, “Triazine antiviral compounds” (Scriptgen Pharmaceuticals, Inc., priority 1998, dated 2002).

System: HBV εRNA
Experiment: εRNA/oligonucleotide hybridization inhibition assay with rRNA competitor
Format: binding, Hepatitis B virus
Settings: for Specificity: ratio RRE+rRNA IC50/εRNA+rRNA IC50, max = inactive in RRE assay
Procedure, shortened: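 Inhibition of hybridization between 25 nM [32P]-εRNA and 100 nM biotinylated complementary oligonucleotide (50 mM Tris-HCl pH 7.5, 200 mM KCl, 5 mM MgCl2, 60 min, 25 °C), hybrids captured by streptavidin filter and counted. Titrations 0.1-200 μM with 60-fold excess rRNA; specificity = RRE+rRNA IC50/εRNA+rRNA IC50.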

[1] = radiolabeled εRNA, 60-fold excess rRNA competitor

SMILES | IC50 [1] [µM] | Specificity | HBV + rRNA IC50 (μM) [1]
CC(=NNc1nc(Nc2ccccc2)nc(N2CCCC2)n1)c1ccc([N+](=O)[O-])cc1 [Compound 183] | 47.8 | max. | 
Cc1ccc(Nc2nc(NCc3ccccc3)nc(NN=Cc3ccc(F)cc3F)n2)cc1C [Compound 191] | 87 | max. | 
CN(C)c1nc(NCc2ccccc2)nc(NCc2cccs2)n1 [Compound 192] | 235 | max. | 
COc1c(C=NNc2nc(N3CCCC3)nc(N3CCOCC3)n2)cccc1[N+](=O)[O-] [Compound 193] | 28 | max. | 
Cc1ccc(Nc2nc(NCc3ccccc3)nc(Nc3ccc([N+](=O)[O-])cc3)n2)cc1C [Compound 194] | 34 | max. | 
COc1ccccc1C=NNc1nc(NCc2ccccc2)nc(Nc2ccccc2)n1 [Compound 195] | 28.2 | max. | 
Cc1ccc(Nc2nc(NN=Cc3ccc(Cl)cc3)nc(N3CCOCC3)n2)cc1Cl [Compound 196] | 32.7 | max. | 
COc1ccc(Nc2nc(NN=Cc3cc(Br)cc(Br)c3O)nc(N3CCOCC3)n2)cc1 [Compound 200] | 12.1 | max. | 
Fc1cccc(C=NNc2nc(Nc3ccccc3)nc(N3CCCC3)n2)c1 [Compound 201] | 53 | max. | 
CCN(CC)c1nc(Nc2cccc(Br)c2)nc(Nc2cc(C)ccc2C)n1 [Compound 202] | 68 | max. | 
O=C(CSc1nc(SCC(=O)Nc2ccccc2C(F)(F)F)nc(SCC(=O)Nc2ccccc2C(F)(F)F)n1)Nc1ccccc1C(F)(F)F [Compound 212] | 23.1 | max. | 
C(=Cc1ccccc1)C=NNc1nc(Nc2ccccc2)nc(N2CCCC2)n1 [Compound 213] | 15.6 | 33.3 | 
CCN(CC)c1nc(NN=Cc2ccc(Cl)c([N+](=O)[O-])c2)nc(Nc2cc(C)ccc2C)n1 [Compound 214] | 42.6 | max. | 
Clc1ccc(C=NNc2nc(Nc3ccccc3)nc(N3CCCC3)n2)cc1 [Compound 218] | 4.8 | 12.0 | 
Cc1ccc(Nc2nc(NCc3ccccc3)nc(NN=Cc3cc(Br)cc(Br)c3O)n2)cc1C [Compound 219] |  |  | inactive
O=C(NNc1nc(Nc2ccccc2)nc(Nc2cccc(C(F)(F)F)c2)n1)c1cccc(Br)c1 [Compound 220] | 27.6 | 33.3 | 
CN(C)c1nc(NCc2ccccc2)nc(NN=Cc2ccc(Cl)cc2Cl)n1 [Compound 224] | 60.1 | max. | 
COc1ccc(Nc2nc(NCc3cccc([N+](=O)[O-])c3)nc(NCc3cc(F)ccc3F)n2)cc1OC [Compound 225] | 193 | max. | 
Cc1ccc(Nc2nc(NCc3ccccc3)nc(NN=Cc3cc(Cl)ccc3O)n2)cc1C [Compound 226] | 84.4 | 5.0 | 
CC(=NNc1nc(Nc2ccccc2)nc(N2CCCC2)n1)c1ccc(F)cc1 [Compound 227] | 12.8 | max. | 
Cc1ccc(Nc2nc(NCc3ccccc3)nc(NN=Cc3ccccc3F)n2)cc1C [Compound 228] | 79.3 | max. | 
Cc1ccc(Nc2nc(NN=Cc3cccc([N+](=O)[O-])c3)nc(Nc3ccccc3)n2)c(C)c1 [Compound 229] | 4.4 | max. | 
Brc1ccc(Nc2nc(NCc3ccccc3)nc(Nc3ccc(Br)cc3)n2)cc1 [Compound 230] | 20.9 | max. | 
O=[N+]([O-])c1ccc(Nc2nc(NCc3ccccc3)nc(N3CCOCC3)n2)cc1 [Compound 231] | 195 | max. | 
Oc1ccc(Br)cc1C=NNc1nc(Nc2cccc(Br)c2)nc(N2CCOCC2)n1 [Compound 232] | 45.5 | max. | 
CNc1nc(NN=Cc2cc(Cl)ccc2O)nc(Nc2ccccc2)n1 [Compound 245] | 8.1 | max. | 
